According to US6440987B1, “Antipruritic” (Toray Industries, Inc., priority 1996, dated 2002):

Experiments:
guinea pig ileum = experiment: Assay of opioid activity by guinea pig ileum assay (electrically evoked contraction of longitudinal muscle strip); details: for IC50: Cavia porcellus, inhibition of electrically evoked contraction, absence of antagonist; for Ke (nM) nor-BNI (5 nM): nor-BNI as κ antagonist; for Ke (nM) Naloxone (100 nM): naloxone as μ antagonist
Description: Assay of opioid activity by Guinea pig ileum assay.
Male Hartley guinea pigs were used. The guinea pig was killed with a blow, and the ileum excised; the lumen of ileum was washed with a nutritious fluid; and only a piece of longitudinal muscle was stripped. This longitudinal muscle strip was suspended in a Magnus tube filled with Krebes-Henseleit solution (NaCl 135 mM; KCl 4.8 mM; CaCl2 3.4 mM; KH2PO4 1.2 mM; NaHCO3 8.3 mM; MgSO4, 2.5 mM; and glucose 11 mM) kept at 37° C., and gassed with a mixture of 5% carbon dioxide and 95% oxygen. Electrical stimulation was delivered at a rate of 0.1 Hz with 0.5 ms pulses through ring-shaped platinum electrodes placed at upper and lower levels in a Magnus tube. Tissue contractions were recorded via an isometric transducer on a polygraph.
(§1) The test drug was cumulatively added until it inhibited over 50% the contraction of specimen evoked by the electrical stimulation, in the presence or absence of naloxone as a μ antagonist, or nor-BNI as a κ antagonist, and IC50s were calculated for respective experimental conditions. From the difference in drug efficacy in the presence and absence of the antagonist, Ke values were calculated on the basis of following equations.
(§2) Ke=[Concentration of antagonist added]/(Dose ratio−1)
Dose ratio=IC50 in the presence of antagonist/IC50 in the absence of antagonist

mouse vas deferens = experiment: Assay of opioid activity by mouse vas deferens assay (electrically evoked contraction); details: for IC50: inhibition of electrically evoked contraction, absence of antagonist; for Ke (nM) Naloxone (30 nM): naloxone as μ antagonist; for Ke (nM) nor-BNI (10 nM): nor-BNI as κ antagonist; for Ke (nM) NTI (10 nM): NTI as δ antagonist
Description: Assay of opioid activity by mouse vas deferens assay
Male ddY mice were used for the experiment. The vas deferens specimen removed from the animal was suspended in a Magnus tube filled with Krebes-Henseleit solution (NaCl […]; KCl 5.9 mM; CaCl2 2.5 mM; NaH2PO4 1.2 mM; NaHCO3 15.3 mM; and glucose 11.5 mM) kept at 37° C., and gassed with a mixture of 5% carbon dioxide and 95% oxygen. Electrical stimulation was delivered at a rate of 0.1 Hz with 1.0 ms pulses through ring-shaped platinum electrodes placed at upper and lower levels in a Magnus tube. Tissue contractions were recorded via an isometric transducer on a polygraph.
as §1, with “test drug” for “The test drug”, “μ antagonist, nor-BNI as” for “μ antagonist, or nor-BNI as”, “κ antagonist, or NTI as a δ antagonist and IC50s” for “κ antagonist, and IC50s”
as §2
IC50 ratio=IC50 in the presence of antagonist/IC50 in the absence of antagonist

[1] = tested on: scratching behavior induced by Compound 48/80; design: species or system ddY mice; details: mouse, in vivo, sc
[2] = tested on: itching of erupted lesions of urticaria; experiment: Topical application to erupted lesions of urticaria, intensity of itching; assay type: in vivo, human; design: key to Intensity of itching five minutes after the treatment: itching whose intensity was evaluated as moderate (ranked as “++”); completely eradicated five minutes after the treatment (ranked as “−”); details: male adult
Description: An opioid compound selectively acting on a κ receptor, (−)-17-(cyclopropylmethyl)-3,14β-dihydroxy-4,5α-epoxy-6β-[N-methyl-trans-3-(3-furyl)acrylamido]morphinan hyrochloride 7, [drawing 52]
was dissolved in physiological saline, to give an aqueous solution with a concentration of 40 μg/ml. This aqueous solution was topically applied to three erupted lesions of urticaria, on the lower limb of an adult at a dose of 0.2 μg/cm^2.

[3] = tested on: itching due to atopic dermatitis; experiment: Topical application to skin lesions of a patient with atopic dermatitis, intensity of itching; assay type: in vivo, human
Description: The drug solution was applied on five spots with a volume of about 50 μl per 10 cm^2, which was equivalent to a topical dose of 0.2 μg/cm^2. As a comparison, indomethacin cream (having a drug concentration of 7.5 mg/g) was applied at a dose of 75 μg/cm2 in the same manner.

[4] = topical, Compound 7 0.2 μg/cm^2, indomethacin cream 75 μg/cm2, prior to application +++

Row | SMILES | IC50 (guinea pig ileum) | Ke (nM) nor-BNI (5 nM) (guinea pig ileum) | IC50 (mouse vas deferens) | Ke (nM) Naloxone (30 nM) (mouse vas deferens) | Ke (nM) nor-BNI (10 nM) (mouse vas deferens) | melting point | Inhibition (%) of scratching behavior [1] | Ke (nM) Naloxone (100 nM) (guinea pig ileum) | Ke (nM) NTI (10 nM) (mouse vas deferens) | further results
1 | CN(C(=O)/C=C/c1ccoc1)[C@@H]1CC[C@@]2(O)[C@H]3Cc4ccc(O)c5c4[C@@]2(CC[N+]3([O-])CC2CC2)[C@H]1O5 (stereo partly drawn) [Compound 3, 17-cyclopropylmethyl-4,5α-epoxy-3,14β-dihydroxy-6β-[N-methyl-trans-3-(3-furyl)acrylamido]morphinan-N-oxide] | 1.06 nM | 0.02 nM | 2.14 nM | 30.48 nM | 0.040 nM | 238 to 239.8 °C (dec.) |  |  |  | 
2 | Cl.O=C(C1CCc2cc(Cl)c(Cl)cc21)N1CCSCC1CN1CCCC1 (stereo not drawn) [Compound 21, 3-(1-pyrrolidinylmethyl)-4-[5,6-dichloro-1-indancarbonyl]-tetrahydro-1,4-thiazine hydrochloride] |  |  |  |  |  |  | 23% |  |  | 
3 | CN(C(=O)C#Cc1ccc(C(F)(F)F)cc1)[C@@H]1CC[C@@]2(O)[C@H]3Cc4ccc(O)c5c4[C@@]2(CC[N+]3([O-])CC2CC2)[C@H]1O5 (stereo partly drawn) [Compound 5, 17-cyclopropylmethyl-4,5α-epoxy-3,14β-dihydroxy-6β-[N-methyl-3-(4-trifluoromethylphenyl)propyolamido]morphinan-N-oxide] | 1.55 nM | 0.19 nM | 0.59 nM | 5.9 nM | 0.33 nM | 205 to 208 °C (dec.) |  | 29.5 nM | 5.0 nM | 
4 | COc1cccc(/C=C/C(=O)N(C)[C@@H]2CC[C@@]3(O)[C@H]4Cc5ccc(O)c6c5[C@@]3(CC[N+]4([O-])CC3CC3)[C@H]2O6)c1 (stereo partly drawn) [Compound 4, 17-cyclopropylmethyl-4,5α-epoxy-3,14β-dihydroxy-6β-(N-methyl-3-methoxycinnamamido)morphinan-N-oxide] | 4.09 nM | 0.09 nM | 1.8 nM | 50 nM | 0.67 nM | 234 to 236.8 °C (dec.) |  | 28.7 nM | 11 nM | 
5 | Cc1cccc(C#CC(=O)N(C)[C@@H]2CC[C@@]3(O)[C@H]4Cc5ccc(O)c6c5[C@@]3(CC[N+]4([O-])CC3CC3)[C@H]2O6)c1 (stereo partly drawn) [Compound 6, 17-cyclopropylmethyl-4,5α-epoxy-3,14β-dihydroxy-6β-[N-methyl-3-(3-methylphenyl)propyolamido]morphinan-N-oxide] | 11.3 nM | 0.89 nM | 4.6 nM |  | 0.26 nM | 192 to 202 °C (dec.) |  | 75.1 nM | 20 nM | 
6 | CN(C(=O)/C=C/c1ccoc1)[C@@H]1CC[C@@]2(O)[C@H]3Cc4ccc(O)c5c4[C@@]2(CCN3CC2CC2)[C@H]1O5.Cl [Compound 7, (−)-17-(cyclopropylmethyl)-3,14β-dihydroxy-4,5α-epoxy-6β-[N-methyl-trans-3-(3-furyl)acrylamido]morphinan hyrochloride] |  |  |  |  |  |  |  |  |  | Intensity of itching five minutes after the treatment ([2]; urticaria lesions on lower limb, topical 0.2 μg/cm^2 (40 μg/ml in saline), before treatment “++”): −; Duration of no itching state ([2]; urticaria, topical 0.2 μg/cm^2): about five; Duration of no itching state ([3]; topical 0.2 μg/cm^2): at least three; Relief from itching (in words) ([3]; topical, Compound 7 0.2 μg/cm^2 (in five minutes), indomethacin cream 75 μg/cm2): eradicated itching completely; Intensity of itching 5 minutes after application [3, 4]: −; Intensity of itching 10 minutes after application [3, 4]: −; Intensity of itching 3 hours after application [3, 4]: −
7 | CN(C(=O)/C=C/c1ccoc1)[C@@H]1CC[C@@]2(O)[C@H]3Cc4ccc(O)c5c4[C@@]2(CC[N+]3(C)CC2CC2)[C@H]1O5.[I-] (stereo partly drawn) [Compound 1, 17-cyclopropylmethyl-3,14β-dihydroxy-4,5α-epoxy-17-methyl-6β-(N-methyl-trans-3-(3-furyl)acrylamido)morphinanium iodide] | 1.94 nM | 0.03 nM | 4.42 nM | 14.18 nM | 0.17 nM | 202.4 to 207.9 °C (dec.) |  | 16.67 nM | 11.23 nM | 
8 | CN(C(=O)Cc1ccc(Cl)c(Cl)c1)C(CN1CCCC1)c1ccccc1.Cl (stereo not drawn) [Compound 20] |  |  |  |  |  |  | 62% |  |  | 
9 | COc1cccc(/C=C/C(=O)N(C)[C@@H]2CC[C@@]3(O)[C@H]4Cc5ccc(O)c6c5[C@@]3(CC[N+]4(C)CC3CC3)[C@H]2O6)c1.[I-] (stereo partly drawn) [Compound 2, 17-cyclopropylmethyl-3,14β-dihydroxy-4,5α-epoxy-17-methyl-6β-(N-methyl-3-methoxycinnamamido)morphinanium.iodide] | 6.71 nM | 0.54 nM | 5.9 nM | 100 nM | 0.45 nM |  |  | 98.2 nM | 25 nM | 
10 | CN(C(=O)NCc1ccccc1)[C@H]1CC[C@@]2(O)[C@H]3Cc4ccc(O)c5c4[C@@]2(CCN3CC2CC2)[C@H]1O5.O=C(O)C(O)C(O)C(=O)O [Compound 12, 17-cyclopropylmethyl-3,14β-dihydroxy-4,5α-epoxy-6α-(N-methyl-N-benzylureido)morphinan tartrate] |  |  |  |  |  |  | 39% |  |  | 
